The values that follow come from patent US8530504B2, “Pyrazolothiazole compound” (Eisai R&D Management Co., Ltd., priority 2009, dated 2013).

The conditions of assay [1]: in vivo; cited from earlier work.
For assay [2] the following is noted: in vivo; cited from earlier work. The source holds these as a separate data set.
For assay [3], the system named is mice. The experiment in a line: Light/dark box test in mice (anxiolytic effect). The format is in vivo. The conditions noted are these: for Effective Dose: dose significantly prolonging time spent in the light box vs vehicle, oral administration one hour prior to test, male Balb/c mice; for anxiolytic effect in the light/dark box test in mice: statistically significant at 30 mg/kg (oral administration). As for the experimental part: <Evaluation of Anxiolytic Effect in Light/Dark Box Test in Mice>
The light/dark box test in mice was carried out according to a modified method of Belzung C., Misslin R., and Vogel E. et al. (Reference; Behavioural effects of the benzodiazepine receptor partial agonist RO16-6028 in mice, Psychopharmacology, 97, 388-391, 1989). The test apparatus used in this test was a light/dark box including a covered black acrylic box (dark box; 15×10×20 cm), a white acrylic box with top opened (light box; 15×20×20 cm) and a black acrylic tunnel (10×7×4.5 cm) that connects the dark box and the light box and enables a mouse to freely move back and forth between the dark box and light box. In this test apparatus, however, a transparent acrylic plate was used for the front side (20×20 cm) and back side (20×20 cm) of the light box to allow observation of the behavior. After setting illumination so that the light intensity of the floor surface of the light box became 150 Lux, 5-week-old male Balb/c mice (purchased from Nihon Charles River) were introduced into the dark box and the test was started. In the test, the tested compound was suspended in 5% dimethyl sulfoxide, 5% Cremopor EL and 90% physiological saline and orally administered to the test animals one hour prior to the start of the test.
The time spent in the light box was measured as an index of the anxiolytic effect, with “spend in the light box” defined as the state in which all limbs of the mice were on the floor of the light box. […] The statistical significance between the vehicle-treated group and the test compound-treated groups was analyzed by one-way layout analysis of variance followed by Dunnett multiple comparison when multiple doses were set for the same test, and by the Mann-Whitney U test when only one dose was set.

The target of assay [4] is human CRFR1 (Homo sapiens (Human), UniProt P34998). Put plainly: CRFR1 Binding Test.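 Also: nonspecific binding was determined with a 4,000-fold excess of unlabelled sauvagine and subtracted from every reading.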 The conditions noted are these: competition with 100 pM 125I-CRF, SPA method, membrane fraction of human CRFR1-expressing HEK293 cells; read-out: CRF1 receptor binding capacity IC50.
human CRFR1, sequence (P34998 24-415): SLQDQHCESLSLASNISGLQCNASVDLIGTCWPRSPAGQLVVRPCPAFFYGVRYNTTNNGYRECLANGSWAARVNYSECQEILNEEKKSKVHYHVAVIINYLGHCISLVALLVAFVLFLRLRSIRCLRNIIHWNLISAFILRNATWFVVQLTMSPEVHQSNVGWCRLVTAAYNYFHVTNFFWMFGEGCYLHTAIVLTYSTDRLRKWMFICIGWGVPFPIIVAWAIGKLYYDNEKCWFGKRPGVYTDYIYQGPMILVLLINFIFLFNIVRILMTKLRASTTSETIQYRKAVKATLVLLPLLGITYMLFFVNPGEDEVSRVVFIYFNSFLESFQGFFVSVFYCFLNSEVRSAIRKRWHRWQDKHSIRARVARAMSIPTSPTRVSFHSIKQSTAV
For assay [5], the system named is high-anxiety rats. The conditions noted are these: particularly in high-anxiety rats; cited from earlier work.
The conditions of assay [6]: Journal of Psychiatric Research, 34:171-181 (2000); cited from earlier work.
The test system of assay [7] is rats. The conditions noted are these: cited from earlier work.
The conditions of assay [8]: in vivo; cited from earlier work. This is another data set of the same source.
Assay [9] deals with ethanol withdrawal rats. The conditions noted are these: cited from earlier work.
For assay [10] the following is noted: in vivo; cited from earlier work. This is another data set of the same source.
The conditions of assay [11]: in vivo; cited from earlier work. The source holds these as a separate data set.
For assay [12], the system named is IBS patients. The conditions noted are these: cited from earlier work.
The conditions of assay [13]: convulsion and epilepsy induced by CRF administration; cited from earlier work.
Assay [14] has as its system Tg2576 transgenic mice. The conditions noted are these: cited from earlier work.

`CCCCN(CC)c1nc(C)nc2c1c(C)c(C)n2-c1c(C)cc(C)cc1C` [antalarmin]: the “hypertension induced by intraventricular administration of CRF” value in [1] was “inhibits hypertension induced by intraventricular administration of CRF”. Moreover, the “stress-induced hippocampal tau phosphorylation” value in assay [2] is on record as “inhibits stress-induced hippocampal tau phosphorylation”.

For `CCCN(c1c(OC)nn2c(-c3c(OC)cc(COCC)cc3OC)csc12)C1CCOC1` (stereo not drawn) [Example 46, 3-[4-(Ethoxymethyl)-2,6-dimethoxyphenyl]-6-methoxy-N-propyl-N-(tetrahydrofuran-3-yl)pyrazolo[5,1-b][1,3]thiazole-7-amine], in [3], the “Effective Dose” value was 30 mg/kg and the “anxiolytic effect in the light/dark box test in mice” value is given as “excellent anxiolytic effects”. Further, the half-inhibitory concentration (IC50) (usually the concentration that inhibits the measured activity by half) in [4] is 26 nM.

`CCCN(CCC)c1cc(C)nc2c(-c3cnc(N(C)C)cc3C)c(C)nn12` [Example R121919]: in assay [5], the stress-related sleep disorder entry is reported as “inhibits stress-related sleep disorder”. Moreover, in [6], the “ameliorating depression, depressive symptoms, anxiety” value is given as “effective for ameliorating depression, depressive symptoms, anxiety”. Further, in [7], the anti-anxiety action entry was “exhibits an anti-anxiety action”.

For the molecule `COCc1cc(OC)c(-c2csc3c(N(CC4CCOCC4)CC4CC4)c(C)nn23)c(OC)c1` [Example 4, N-(Cyclopropylmethyl)-3-[2,6-dimethoxy-4-(methoxymethyl)phenyl]-6-methyl-N-(tetrahydro-2H-pyran-4-ylmethyl)pyrazolo[5,1-b][1,3]thiazole-7-amine], in assay [3], the “Effective Dose” value is given as 30 mg/kg and the “anxiolytic effect in the light/dark box test in mice” value is on record as “excellent anxiolytic effects”.

Take `CCOCc1cc(OC)c(-c2csc3c(N(CCCOC)CC4CC4)c(OC)nn23)c(OC)c1` [Example 42, N-(Cyclopropylmethyl)-3-[4-(ethoxymethyl)-2,6-dimethoxyphenyl]-6-methoxy-N-(3-methoxypropyl)pyrazolo[5,1-b][1,3]thiazole-7-amine]: in assay [3], the “Effective Dose” value turned out to be 30 mg/kg and the “anxiolytic effect in the light/dark box test in mice” value is recorded as “excellent anxiolytic effects”. In addition, the IC50 in assay [4] came out at 35 nM.

With α-helical CRF (9-41), the “stress-related increase in intracerebral amyloid-β” value in [8] is listed as “suppresses stress-related increase in intracerebral amyloid-β”. The anxiety behavior result in assay [9] is listed as “inhibits anxiety behavior”. For the same molecule, the “stress-related reduction in food intake” value in assay [10] was “inhibit stress-related reduction in food intake”. The “ischemic and excitotoxic encephalopathy” value in assay [11] is “inhibits ischemic and excitotoxic encephalopathy”. Moreover, the “colon intestinal hyperkinesis, abdominal pain and anxiety” value in assay [12] was “inhibits colon intestinal hyperkinesis in IBS patients and reduces abdominal pain and anxiety”.

With `CCN(c1nc(C)cc(N2CC=C(c3cccc(F)c3)CC2)n1)c1ccc(C(C)C)cc1SC` [CRA1000], in assay [10], the “stress-related reduction in food intake” value is recorded as “inhibit stress-related reduction in food intake”.

In the case of `COCc1cc(OC)c(-c2csc3c(N(CC4CC4)CC4COCOC4)c(OC)nn23)c(OC)c1` [Example 11, Cyclopropylmethyl-3[3-(2,6-dimethoxy-4-methoxymethyl-phenyl)-6-methoxy-pyrazolo[5,1-b][1,3]thiazol-7-yl]-[1,3]dioxan-5-ylmethyl-amine], in assay [3], the “Effective Dose” value is listed as 30 mg/kg and the “anxiolytic effect in the light/dark box test in mice” value is recorded as “excellent anxiolytic effects”. For the same molecule, the IC50 in assay [4] came to 92 nM.

`CCCN(CC1CC1)c1nc(C)nc(Nc2c(Cl)cc(Cl)cc2Cl)c1Cl` [NBI27914]: in assay [13], the limbic system seizure entry is recorded as “inhibits limbic system seizure”. Moreover, the “increased levels of Aβ and Aβ plaque deposition induced by stress” value in assay [14] was “inhibits increased levels of Aβ and Aβ plaque deposition induced by stress”.

Regarding `CCCN(c1c(OC)nn2c(-c3c(OC)cc(COC)cc3OC)csc12)C1CCOC1` (stereo not drawn) [Example 14, 3-[2,6-Dimethoxy-4-methoxymethylphenyl]-6-methoxy-N-propyl-N-(tetrahydrofuran-3-yl)pyrazolo[5,1-b][1,3]thiazole-7-amine], in assay [3], the “Effective Dose” value is 30 mg/kg and the “anxiolytic effect in the light/dark box test in mice” value was “excellent anxiolytic effects”. Further, the IC50 in [4] was determined as 51 nM.

Turning to `CCCN(c1c(OC)nn2c(-c3c(OC)cc(CC)cc3OC)csc12)C1CCOCC1` [Example 22, [3-(4-Ethyl-2,6-dimethoxyphenyl)-6-methoxypyrazolo[5,1-b][1,3]thiazol-7-yl]-propyl-(tetrahydro-pyran-4-yl)amine], the IC50 in assay [4] is 64 nM.

Take `CCOc1nn2c(-c3c(OC)cc(COC)cc3OC)csc2c1N(CC1CCC1)C1CCOCC1` [Example 83, N-(Cyclobutylmethyl)-3-[2,6-dimethoxy-4-(methoxymethyl)phenyl]-6-ethoxy-N-(tetrahydro-2H-pyran-4-yl)-pyrazolo[5,1-b][1,3]thiazole-7-amine]: the IC50 in [4] was 47 nM.

On to `COCc1cc(OC)c(-c2csc3c(N(CC4CCC4)CC4C5COCC54)c(OC)nn23)c(OC)c1` (single isomer, unassigned; diastereomer 1) [Example 98, N-(Cyclobutylmethyl)-3-[2,6-dimethoxy-4-(methoxymethyl)phenyl]-6-methoxy-N-[3-oxabicyclo[3.1.0]hex-6-ylmethyl]-pyrazolo[5,1-b][1,3]thiazole-7-amine (diastereomer 1)], for which the IC50 in assay [4] stood at 88 nM.

For `COCc1cc(OC)c(-c2csc3c(N(CC4CC4)CC4C5COCC54)c(OC)nn23)c(OC)c1` (single isomer, unassigned; diastereomer 1) [Example 94, N-(Cyclopropylmethyl)-3-[2,6-dimethoxy-4-(methoxymethyl)phenyl]-6-methoxy-N-[3-oxabicyclo[3.1.0]hex-6-ylmethyl]-pyrazolo[5,1-b][1,3]thiazole-7-amine (diastereomer 1)], in [3], the “Effective Dose” value is recorded as 30 mg/kg and the “anxiolytic effect in the light/dark box test in mice” value is listed as “excellent anxiolytic effects”. For the same molecule, the IC50 in assay [4] came out at 45 nM.

Take `CCCN(c1c(OC)nn2c(-c3c(OC)cc(COC(C)C)cc3OC)csc12)C1CCOCC1` [Example 68, [3-(4-Isopropoxymethyl-2,6-dimethoxyphenyl)-6-methoxy-pyrazolo[5,1-b][1,3]thiazol-7-yl]-propyl-(tetrahydro-pyran-4-yl)-amine]: the IC50 in [4] was 77 nM.

Consider `CCCN(CCC)c1c(C)nn2c(-c3c(OC)cc(COC)cc3OC)c(SC)sc12` [Example 2], for which the IC50 in assay [4] was 39 nM.

In the case of `COCc1cc(OC)c(-c2csc3c(N(CCOC(C)C)CC4CC4)c(OC)nn23)c(OC)c1` [Example 49, N-(Cyclopropylmethyl)-3-[2,6-dimethoxy-4-(methoxymethyl)phenyl]-N-(2-isopropoxyethyl)-6-methoxypyrazolo[5,1-b][1,3]thiazole-7-amine], the IC50 in assay [4] stood at 59 nM.

On to `COCCCN(c1c(OC)nn2c(-c3c(OC)cc(C4CC4)cc3OC)csc12)C1CCCC1` [Example 69, N-Cyclopentyl-3-(4-cyclopropyl-2,6-dimethoxyphenyl)-6-methoxy-N-(3-methoxypropyl)pyrazolo[5,1-b][1,3]-thiazole-7-amine], for which the IC50 in [4] worked out at 48 nM.

As for `CCCN(c1ccccn1)c1c(OC)nn2c(-c3c(OC)cc(COC)cc3OC)csc12` [Example 86, 3-[2,6-Dimethoxy-4-(methoxymethyl)phenyl]-6-methoxy-N-propyl-N-pyridin-2-ylpyrazolo[5,1-b][1,3]thiazole-7-amine], the IC50 in assay [4] was 33 nM.

As for `CCOc1nn2c(-c3c(OC)cc(COC)cc3OC)csc2c1N(CC1CC1)C1CCOCC1` [Example 81, N-(Cyclopropylmethyl)-3-[2,6-dimethoxy-4-(methoxymethyl)phenyl]-6-ethoxy-N-(tetrahydro-2H-pyran-4-yl)-pyrazolo[5,1-b][1,3]thiazole-7-amine], in [4], the IC50 came to 89 nM.
